{"source": "patent US5457092A", "about": "“Methods of promoting bone growth in mammals comprising administration of modified parathyroid hormone” (Gesellschaft fur Biotechnologische Forschung mbH (GBF), priority 1987, dated 1995)", "key": {"[1]": {"tested_on": "chondrocytes from sterna of 16-day-old embryonic chicks", "experiment": "Stimulation of DNA synthesis in chondrocytes by PTH fragments (Table 1)", "type": "cell-based, chick", "conditions": "for [^3 H]thymidine incorporation: 4 h; for E/C: stimulated / non-induced control cells", "method": "Chondrocytes were isolated from sterna of 16-day-old embryonic chicks according to J. Biol. Chem., 261 (1986) 7997-8001 (10; Yasui et al.) with some modifications. Collagenase was dissolved in Hanks' balanced salt solution (0.4 mM Na2 HPO4, 140 mN NaCl, 5.3 mM KCl, 0.4 mM MgSO4, 1.3 mM CaCl2, 0.4 mM KH2 PO4, 0.5 mM MglC2, 5 mM glucose, 0.05% gentamicin) at a concentration of 286 units/ml. Sterna were treated repeatedly for 30 min with collagenase solution at 37° C. Cells first released by this procedure were discarded because of their very poor responsiveness towards PTH. The collagenase treatment was subsequently repeated leading to a highly homogenous cell population of chondrocytes. The cells obtained by a second collagenase treatment were collected by centrifugation (1000 rpm, 10 min), washed twice with medium (Dulbecco's modified Eagle's medium, GIBCO, supplemented with NaHCO3 (45 mM), glutamine (2 mM), penicillin G/streptomycin (65 mg/1 and 100 mg/l, respectively), Hepes (10 mM, pH 7.2), and FCS (10% v/v) and counted.\nThe DNA synthesis rate was assayed in monolayer culture by the incorporation of ]^3 H]thymidine into perchloric acid-precipitable material. […] After 17 h, the medium was replaced by 200 μl of serum-free medium. After 4 days, chondrocytes were incubated for 4 h with the appropriate effector and 1μ Ci of [^3 H]thymidine. Subsequently, medium was removed and the cells were washed twice with 200 μl of phosphate-buffered saline (PBS: 137 mM NaCl, 2.7 mN KCl, 1.5 mM KH2 PO4, 0.8 mN Na2 HPO4, pH 7.0). Then cells were lysed by 100 μl of 2% (v/v) Nonidet P- 40 and 2% (w/v) sodium dodecyl sulfate treatment and the perchloric acid-insoluble material was precipitated by adding an equal volume of ice-cold 2% (w/v) perchloric acid in the presence of 1% herring sperm DNA as carrier. After storage for 10 min at -20° C., the precipitated material of each well was transferred to glass fiber filters with a Scatron--As semiautomatic cell harvester. Filters were dried at 80° C. for 20 min, transferred into scintillation vials, and 2 ml of scintillation mixture (scintillator 299; United Technology Pachard) were added. Radioactivity of the samples was determined with a β counter (Minimax; United Technology Pachard). Each test consisted of 5 up to 10 identically treated wells and was repeated at least twice with freshly prepared chondrocytes.\nThe incorporation of [^3 H]thymidine by non-induced control cells and by stimulated cells is shown by C and E, respectively. The results shown mean ±S.E. for n parallel cell cultures."}, "[2]": {"tested_on": "osteoblast enriched rat embryo calvaria cell cultures", "experiment": "Cyclic AMP production in rat embryo calvaria cell cultures", "type": "cell-based", "conditions": "100 nM; 15 min; control 29 ± 2.9 pmol/mg of protein", "method": "(§1) FIG. 10 is a graphical representation showing the dose dependent stimulation by bPTH (1-84) of osteoblast enriched rat embryo calvaria cell cultures. Experimental details for the determination of cyclic AMP (.quadrature.) (15 min after stimulation) and incorporation of [^3 H]thymidine into DNA ( ) and CK ( ) specific activity (24 h after stimulation) are given below. The results are means ±S.E.M., N≥5. In several cases the S.E.M. was less than the size of the symbol. Control values were: cyclic AMP, 25±5 pmol/mg of protein; DNA, 240±30 c.p.m./μg of DNA; CK, 200±20 nmol/min per mg of protein. Statistical significance of differences between treated and corresponding control groups by Student's T test: *P<0.05; **P<0.01.\n(§2) Rat calvaria cultures were treated with fragments of PTH derived from the central portion of the molecule."}, "[3]": {"tested_on": "osteoblast enriched rat embryo calvaria cell cultures", "experiment": "CK specific activity in rat embryo calvaria cell cultures", "type": "cell-based", "conditions": "for CK specific activity, effect of fragment (experimental value/control value): 100 nM, 24 h, control 457 ± 46 nmol/min per mg of protein; for increase of CK activity (in words): treated for 24 h", "method": "as §1, §2"}, "[4]": {"tested_on": "osteoblast enriched rat embryo calvaria cell cultures", "experiment": "DNA synthesis ([3H]thymidine incorporation) in rat embryo calvaria cell cultures", "type": "cell-based", "conditions": "100 nM; 24 h; control 624 ± 73 c.p.m./μg of DNA", "method": "as §1"}, "[5]": {"tested_on": "ROS 17/2.8 osteoblast-like cells", "experiment": "CK specific activity in ROS 17/2.8 osteoblast-like cells", "type": "cell-based, rat"}, "[6]": {"tested_on": "ROS 17/2.8 osteoblast-like cells", "experiment": "DNA synthesis in ROS 17/2.8 osteoblast-like cells", "type": "cell-based, rat"}, "[7]": {"tested_on": "ROS 17/2.8 osteoblast-like cells", "experiment": "Cyclic AMP production in ROS 17/2.8 osteoblast-like cells", "type": "cell-based, rat", "method": "When cultures of the widely used model for osteoblasts, the osteoblast-likeclone of rat osteosarcoma, ROS 17/2.8 (Endocrinology (Baltimore), 107 (1980) 1494-1503=12; Majeska et al.), were incubated with full-length PTH and PTH fragments (Table 4), cyclic AMP production was stimulated only by bPTH(1-84) and hPTH(1-34), whereas hPTH(25-39), hPTH(27-48), hPTH(28-48) and hPTH(34-47) were ineffective."}}}
{"substance": "hPTH(30-47): PTH fragment 30-47, human source; comparative example (DVHNFVALGAPLAPRDAG; Parathyroid hormone; UniProt P01270 61-78, looked up, fragment) [reference compound]", "values": [{"measurement": "[^3 H]thymidine incorporation", "setting": "[1]; 5.1 × 10^-5 mol/l, control 139 ± 6", "value": "248 ± 31", "unit": "cpm"}, {"measurement": "E/C", "setting": "[1]; 5.1 × 10^-5 mol/l", "value": 1.78}, {"measurement": "[^3 H]thymidine incorporation", "setting": "[1]; 5.1 × 10^-6 mol/l, control 139 ± 6", "value": "193 ± 20", "unit": "cpm"}, {"measurement": "E/C", "setting": "[1]; 5.1 × 10^-6 mol/l", "value": 1.39}, {"measurement": "[^3 H]thymidine incorporation", "setting": "[1]; 5.1 × 10^-7 mol/l, control 139 ± 6", "value": "222 ± 19", "unit": "cpm"}, {"measurement": "E/C", "setting": "[1]; 5.1 × 10^-7 mol/l", "value": 1.60}, {"measurement": "[^3 H]thymidine incorporation", "setting": "[1]; 5.1 × 10^-8 mol/l, control 139 ± 6", "value": "169 ± 23", "unit": "cpm"}, {"measurement": "E/C", "setting": "[1]; 5.1 × 10^-8 mol/l", "value": 1.22}, {"measurement": "Cyclic AMP concentration, effect of fragment (experimental value/control value)", "setting": "[2]", "value": "1.00 ± 0.22"}, {"measurement": "CK specific activity, effect of fragment (experimental value/control value)", "setting": "[3]", "value": "1.27 ± 0.03"}, {"measurement": "increase of CK activity (in words)", "setting": "[3]", "value": "slightly stimulatory"}, {"measurement": "[3H)Thymidine incorporation, effect of fragment (experimental value/control value)", "setting": "[4]", "value": "1.86 ± 0.18"}]}
{"substance": "hPTH(28-39): PTH fragment 28-39, human source (LQDVHNFVALGA; Parathyroid hormone; UniProt P01270 59-70, looked up, fragment)", "values": [{"measurement": "[^3 H]thymidine incorporation", "setting": "[1]; 7.6 × 10^-4 mol/l, control 324 ± 18", "value": "387 ± 41", "unit": "cpm"}, {"measurement": "E/C", "setting": "[1]; 7.6 × 10^-4 mol/l", "value": 1.19}, {"measurement": "[^3 H]thymidine incorporation", "setting": "[1]; 7.6 × 10^-5 mol/l, control 324 ± 18", "value": "399 ± 47", "unit": "cpm"}, {"measurement": "E/C", "setting": "[1]; 7.6 × 10^-5 mol/l", "value": 1.23}, {"measurement": "[^3 H]thymidine incorporation", "setting": "[1]; 7.6 × 10^-6 mol/l, control 324 ± 18", "value": "324 ± 45", "unit": "cpm"}, {"measurement": "E/C", "setting": "[1]; 7.6 × 10^-6 mol/l", "value": 1.00}, {"measurement": "[^3 H]thymidine incorporation", "setting": "[1]; 7.6 × 10^-7 mol/l, control 324 ± 18", "value": "473 ± 74", "unit": "cpm"}, {"measurement": "E/C", "setting": "[1]; 7.6 × 10^-7 mol/l", "value": 1.46}, {"measurement": "[^3 H]thymidine incorporation", "setting": "[1]; 7.6 × 10^-8 mol/l, control 324 ± 18", "value": "319 ± 39", "unit": "cpm"}, {"measurement": "E/C", "setting": "[1]; 7.6 × 10^-8 mol/l", "value": 0.97}]}
{"substance": "hPTH(32-47): PTH fragment 32-47 as printed; at this place probably a misprint of hPTH(28-47) (HNFVALGAPLAPRDAG; Parathyroid hormone; UniProt P01270 63-78, looked up, fragment)", "values": [{"measurement": "increase of CK activity (in words)", "setting": "[3]", "value": "maximally active"}]}
{"substance": "hPTH(24-47): PTH fragment 24-47 as printed; probably a misprint of hPTH(34-47) (LRKKLQDVHNFVALGAPLAPRDAG; Parathyroid hormone; UniProt P01270 55-78, looked up, fragment)", "values": [{"measurement": "stimulation of CK activity (in words)", "setting": "[5]", "value": "stimulated by all of the cell fragments tested except"}, {"measurement": "stimulation of DNA synthesis (in words)", "setting": "[6]", "value": "stimulated by all of the cell fragments tested except"}]}
{"substance": "hPTH(33-47): PTH fragment 33-47, human source; inactive fragment (NFVALGAPLAPRDAG; Parathyroid hormone; UniProt P01270 64-78, looked up, fragment) [reference compound]", "values": [{"measurement": "increase of CK activity (in words)", "setting": "[3]", "value": "inactive"}]}
{"substance": "hPTH(29-47): PTH fragment 29-47, human source (QDVHNFVALGAPLAPRDAG; Parathyroid hormone; UniProt P01270 60-78, looked up, fragment)", "values": [{"measurement": "[^3 H]thymidine incorporation", "setting": "[1]; 4.8 × 10^-5 mol/l, control 139 ± 6", "value": "273 ± 30", "unit": "cpm"}, {"measurement": "E/C", "setting": "[1]; 4.8 × 10^-5 mol/l", "value": 1.96}, {"measurement": "[^3 H]thymidine incorporation", "setting": "[1]; 4.8 × 10^-6 mol/l, control 139 ± 6", "value": "225 ± 20", "unit": "cpm"}, {"measurement": "E/C", "setting": "[1]; 4.8 × 10^-6 mol/l", "value": 1.62}, {"measurement": "[^3 H]thymidine incorporation", "setting": "[1]; 4.8 × 10^-7 mol/l, control 139 ± 6", "value": "273 ± 33", "unit": "cpm"}, {"measurement": "E/C", "setting": "[1]; 4.8 × 10^-7 mol/l", "value": 1.96}, {"measurement": "[^3 H]thymidine incorporation", "setting": "[1]; 4.8 × 10^-8 mol/l, control 139 ± 6", "value": "138 ± 15", "unit": "cpm"}, {"measurement": "E/C", "setting": "[1]; 4.8 × 10^-8 mol/l", "value": 0.99}, {"measurement": "Cyclic AMP concentration, effect of fragment (experimental value/control value)", "setting": "[2]", "value": "0.57 ± 0.47"}, {"measurement": "CK specific activity, effect of fragment (experimental value/control value)", "setting": "[3]", "value": "1.67 ± 0.13"}, {"measurement": "increase of CK activity (in words)", "setting": "[3]", "value": "stimulatory but to a lesser degree"}, {"measurement": "[3H)Thymidine incorporation, effect of fragment (experimental value/control value)", "setting": "[4]", "value": "1.96 ± 0.14"}]}
{"substance": "hPTH(27-48): PTH fragment 27-48 as printed; probably a misprint of hPTH(28-47) (KLQDVHNFVALGAPLAPRDAGS; Parathyroid hormone; UniProt P01270 58-79, looked up, fragment)", "values": [{"measurement": "stimulation of cyclic AMP production (in words)", "setting": "[7]", "value": "ineffective"}]}
{"substance": "hPTH(31-47): PTH fragment 31-47, human source; comparative example (VHNFVALGAPLAPRDAG; Parathyroid hormone; UniProt P01270 62-78, looked up, fragment) [reference compound]", "values": [{"measurement": "[^3 H]thymidine incorporation", "setting": "[1]; 5.3 × 10^-5 mol/l, control 139 ± 6", "value": "176 ± 8", "unit": "cpm"}, {"measurement": "E/C", "setting": "[1]; 5.3 × 10^-5 mol/l", "value": 1.27}, {"measurement": "[^3 H]thymidine incorporation", "setting": "[1]; 5.3 × 10^-6 mol/l, control 139 ± 6", "value": "178 ± 35", "unit": "cpm"}, {"measurement": "E/C", "setting": "[1]; 5.3 × 10^-6 mol/l", "value": 1.28}, {"measurement": "[^3 H]thymidine incorporation", "setting": "[1]; 5.3 × 10^-7 mol/l, control 139 ± 6", "value": "178 ± 24", "unit": "cpm"}, {"measurement": "E/C", "setting": "[1]; 5.3 × 10^-7 mol/l", "value": 1.28}, {"measurement": "[^3 H]thymidine incorporation", "setting": "[1]; 5.3 × 10^-8 mol/l, control 139 ± 6", "value": "165 ± 20", "unit": "cpm"}, {"measurement": "E/C", "setting": "[1]; 5.3 × 10^-8 mol/l", "value": 1.19}, {"measurement": "increase of CK activity (in words)", "setting": "[3]", "value": "inactive"}]}
{"substance": "hPTH(29-39): PTH fragment 29-39 as printed; probably a misprint of hPTH(25-39) (QDVHNFVALGA; Parathyroid hormone; UniProt P01270 60-70, looked up, fragment)", "values": [{"measurement": "increase of CK activity (in words)", "setting": "[3]", "value": "maximally active"}]}
